Values of other authors, collected in US20040170688A1, “Enteric formulation of fluoxetin” (priority 2001, published 2004).

Conditions: published literature

| SMILES | elimination half-life |
| --- | --- |
| CNCCC(Oc1ccc(C(F)(F)F)cc1)c1ccccc1 (stereo not drawn) [Fluoxetin, N-Methyl-3-phenyl-3-[(α,α,α-trifluorotolyl)oxyl] propylamine] | very long |
| NCCC(Oc1ccc(C(F)(F)F)cc1)c1ccccc1 (centres unmarked) [NorFluoxetin] | very long |
